Assays:
[1] = test system: FoxO1, FoxO3, FoxO4; test: Excision efficiency (Real Time PCR, western blot) in BM; assay type: in vivo, mouse
Description: RNA recovered from BM was converted to cDNA and then analyzed for FoxO1 (FIG. 10C.), FoxO3 (FIG. 10D.), FoxO4 (FIG. 10E.) and GAPDH expression by quantitative Real Time PCR. Each FoxO gene expression is normalized with GAPDH expression.
BM recovered from one saline-treated FoxO1/3/4^floxed; MLL-AF9; Mx1-Cre+ mouse (lane 1) five FoxO1/3/4^floxed; MLL-AF9; Mx1-Cre+ mice treated with pI-pC (lanes 2-6) that succumbed to AML-related death were subjected to Western blot with FoxO3 (75D8) and Tubulin antibodies.

[2] = test system: c-Jun, FoxO3 phosphorylation; test: Western blot of BM cells from mice that succumbed to AML; assay type: in vivo, mouse; details: pI-pC-treated Mx1-Cre+ mice that died of AML despite deletion of FoxO1/3/4
Description: BM cells recovered from mice that succumbed to control or myrAKT-expressing MLL-AF9-induced AML (refer to FIG. 10G) were subjected to western blot with antibodies that specifically recognize AKT, Tubulin or the phosphorylated forms of FoxO3 (pFoxO3^S256) c-JUN (pc-JUN^S63).
BM cells recovered from mice that succumbed MLL-AF9-induced AML (refer to FIG. 5F) that were wild type or null for FoxO1/3/4 were subjected to western blot with antibodies that specifically recognize AKT, Tubulin or the phosphorylated forms of FoxO3 (pFoxO3^S256) c-JUN (pc-JUN^S63).
Based on the observation that the JNK/c-JUN signaling pathway is activated in response to FOXO inhibition (directly or via AKT activation), whether the activation of this pathway was also initiated in vivo was examined. To this end, the phosphorylation status of c-Jun in BM cells of saline and pI-pC-treated FoxO1/3/4^floxed; Mx1-Cre+; MLL-AF9 mice (FIG. 9F) that developed overt AML was examined. Enhanced pc-Jun^Ser63 in 75% of mice that died of AML despite efficient deletion of FoxO1/3/4 (FIGS. 13A and 10C-10F) was observed. The phosphorylation status of BM cells derived from control and myrAKT-expressing leukemic mice from FIG. 10H was evaluated.

## polyinosine-polycytidyline [pI-pC]
[1]; BM RNA
  FOXO1/3/4 expression (quantitative Real Time PCR, normalized with GAPDH): suppression of FOXO1/3/4 expression
[1]; BM of Mx1-Cre+ mice that succumbed to AML
  FOXO3 (Western blot): below detection
[2]
  mice with enhanced pc-Jun^Ser63: 75%

Reference: US20140206624A1, “TREATMENT OF LEUKEMIA” (THE BRIGHAM AND WOMEN'S HOSPITAL, INC., priority 2011, published 2014)
